Laboratory results taken from patent US7776910B2, “Arylsulfonyl pyrrolidines as 5-HT6 inhibitors” (Roche Palo Alto LLC, priority 2006, dated 2010).
Counter-ions that a name gives are not always drawn.

Tests used:
[1] = target: T1, recombinant human 5-HT6 receptor (Homo sapiens, UniProt P50406); assay: Radioligand binding studies, 5-HT6 ligand affinity ([3H]LSD competition); settings: [3H]LSD displacement, membranes of HEK293 cells expressing the receptor, pH 7.4, 37° C.; read-out: pKi for the 5-HT6 receptor (converted)
T1 construct: expressed in transfected cells
T1 sequence (P50406 whole entry): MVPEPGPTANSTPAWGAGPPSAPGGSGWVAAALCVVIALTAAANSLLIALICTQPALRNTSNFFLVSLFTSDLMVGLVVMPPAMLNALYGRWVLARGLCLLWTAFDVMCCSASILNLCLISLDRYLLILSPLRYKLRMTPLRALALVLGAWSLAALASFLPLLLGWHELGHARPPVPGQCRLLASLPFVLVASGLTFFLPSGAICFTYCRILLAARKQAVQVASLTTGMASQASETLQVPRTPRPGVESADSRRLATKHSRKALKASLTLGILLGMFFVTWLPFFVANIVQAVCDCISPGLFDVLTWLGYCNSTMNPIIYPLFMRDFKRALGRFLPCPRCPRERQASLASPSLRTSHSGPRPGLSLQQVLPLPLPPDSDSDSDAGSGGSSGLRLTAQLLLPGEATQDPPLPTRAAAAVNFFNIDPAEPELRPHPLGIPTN
Experimental: (§1) This example illustrates in vitro radioligand binding studies of compound of formula I.
(§2) The binding activity of compounds of this invention in vitro was determined as follows. Duplicate determinations of 5-HT6 ligand affinity were made by competing for binding of [^3H]LSD in cell membranes derived from HEK293 cells stably expressing recombinant human 5-HT6 receptor. Duplicate determinations of 5-HT2A ligand affinity were made by competing for binding of [^3H]Ketanserin (3-(2-(4-(4-fluorobenzoyl)piperidinol)ethyl)-2,4(1H,3H)-quinazolinedione) in cell membranes derived from CHO-K1 cells stably expressing recombinant human 5-HT2A receptor. Membranes were prepared from HEK 293 cell lines by the method described by Monsma et al., Molecular Pharmacology, Vol. 43 pp. 320-327 (1993), and from CHO-K1 cell lines as described by Bonhaus et al., Br J. Pharmacol. June; 115(4):622-8 (1995).
(§3) For estimation of affinity at the 5-HT6 receptor, all determinations were made in assay buffer containing 50 mM Tris-HCl, 10 mM MgSO4, 0.5 mM EDTA, 1 mM ascorbic acid, pH 7.4 at 37° C., in a 250 microliter reaction volume. […]
(§4) Assay tubes containing [^3H] […] LSD or [^3H]Ketanserin were determined as radioactive counts per minute using Packard TopCount.
(§5) Displacement of [^3H]LSD or [^3H]Ketanserin from the binding sites was quantified by fitting concentration-binding data to a 4-parameter logistic equation: […]

[2] = target: T2, recombinant human 5-HT2A receptor (Homo sapiens, UniProt P28223); assay: Radioligand binding studies, 5-HT2A ligand affinity ([3H]Ketanserin competition); settings: [3H]Ketanserin displacement, membranes of CHO-K1 cells expressing the receptor, pH 7.4, 32° C.; read-out: pKi for the 5-HT2A receptor (converted)
T2 construct: expressed in transfected cells
T2 sequence (P28223 whole entry): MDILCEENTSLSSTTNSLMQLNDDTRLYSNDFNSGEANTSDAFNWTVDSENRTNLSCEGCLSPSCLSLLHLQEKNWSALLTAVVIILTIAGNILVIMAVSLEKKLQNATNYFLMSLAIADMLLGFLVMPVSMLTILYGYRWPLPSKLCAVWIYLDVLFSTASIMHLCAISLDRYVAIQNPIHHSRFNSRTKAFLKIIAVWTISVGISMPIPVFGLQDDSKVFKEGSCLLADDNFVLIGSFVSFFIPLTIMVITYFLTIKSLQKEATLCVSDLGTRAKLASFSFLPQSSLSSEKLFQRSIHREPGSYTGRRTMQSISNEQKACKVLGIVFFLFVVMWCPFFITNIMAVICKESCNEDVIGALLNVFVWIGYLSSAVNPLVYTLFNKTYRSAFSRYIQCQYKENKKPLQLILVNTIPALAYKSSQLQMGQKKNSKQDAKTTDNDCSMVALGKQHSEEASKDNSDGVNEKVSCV
Experimental: as §1, §2, §3, §4, §5

Row | Structure (SMILES) | melting point [°C] | other results
1 | CCS(=O)(=O)c1cccc(S(=O)(=O)c2ccc(C3CCNC3)c(O)c2)c1 (centres unmarked) (as salt: HCl) [Compound 20, 5-(3-Ethanesulfonyl-benzenesulfonyl)-2-pyrrolidin-3-yl-phenol] | 124.5 to 126.7 | 
2 | Cc1cc(S(=O)(=O)c2ccc(O)c(Cl)c2)ccc1C1CCNC1 (centres unmarked) (as salt: HCl) [Compound 32, 2-Chloro-4-(3-methyl-4-pyrrolidin-3-yl-benzenesulfonyl)-phenol] | 110 to 112.9 | 
3 | O=S(=O)(c1cccc(F)c1)c1ccc([C@@H]2CCNC2)c(O)c1 (as salt: HCl) [Compound 35, 5-(3-Fluoro-benzenesulfonyl)-2-(S)-pyrrolidin-3-yl-phenol] | 239 to 241 | 
4 | CN1CC[C@@H](c2ccc(S(=O)(=O)c3ccc(O)cc3)cc2F)C1 [4-[3-Fluoro-4-(1-methyl-(S)-pyrrolidin-3-yl)-benzenesulfonyl]-phenol] |  | Ki [1]: ~100 pM
5 | CCSc1cccc(S(=O)(=O)c2ccc(C3CCNC3)c(O)c2)c1 (centres unmarked) [5-(3-Ethylsulfanyl-benzenesulfonyl)-2-pyrrolidin-3-yl-phenol] |  | Ki [2]: ~891 pM

Second part, led by results:

Row | melting point [°C] | Structure (SMILES) | other results
6 | 186 to 187.5 | Cc1cc(S(=O)(=O)c2ccc(O)cc2)ccc1C1CCN(C)C1 (centres unmarked) (as salt: HCl) [Compound 51, 4-[3-Methyl-4-(1-methyl-pyrrolidin-3-yl)-benzenesulfonyl]-phenol] | 
7 | 125 to 128 | Cc1cc(S(=O)(=O)c2ccc(O)c(C(C)C)c2)ccc1C1CCNC1 (centres unmarked) [Compound 85, 2-Isopropyl-4-(3-methyl-4-pyrrolidin-3-yl-benzenesulfonyl)-phenol] | 
8 | 56 to 58 | Cc1cc(S(=O)(=O)c2ccccc2)ccc1[C@@H]1CCN(S(C)(=O)=O)C1 [Compound 115, 3-(4-Benzenesulfonyl-2-methyl-phenyl)-1-methanesulfonyl-(S)-pyrrolidine] | 
